Measurements taken from patent US8343913B1, “Hsp90, buffering and drug resistance” (priority 2004, dated 2013).
Entries after “also recorded” stand apart in the source; their conditions may differ.

Experiments:
[1] = test system: S. cerevisiae; test: Fluconazole MIC test (broth microdilution) with Hsp90 or calcineurin inhibitors; type: cell-based, Saccharomyces cerevisiae
Procedure: (§1) Cell densities of overnight cultures were determined and dilutions were prepared such that ˜10^3 cells were inoculated into each well. Radicicol (RAD, A.G. Scientific, Inc.) and geldanamycin (GdA, Alexis Biochemicals) were employed to inhibit Hsp90 at the concentrations indicated in the figure legends (1-5 μM). Cyclosporin A (CsA, CalBiochem) was employed to inhibit calcineurin at a concentration of 20 μM. Dimethyl sulfoxide (DMSO, Sigma-Aldrich Co.) was the solvent for RAD, GdA, and CsA. Thus, the maximum final DMSO concentration (0.14%) was included in FL MIC tests performed in the absence of RAD, GdA, or CsA to control for any solvent effects.
(§2) After 48 hours, plates were sealed with a clear film (Axygen Scientific), re-suspended by agitation, and absorbance was determined at 595 nm with the Multiskan Ascent photometer (Thermo Labsystems, Thermo Electron Corporation). Absorbance values were corrected for background from the corresponding medium. MICs were determined as the concentration of FL that inhibits fungal growth by 50% relative to the FL-free growth control. The MIC of each strain was tested at least two independent times in duplicate. Most strains were tested in rich medium (half-strength YPD) and SD medium. C. albicans clinical isolates were also tested in the synthetic defined medium that is the standard for clinical testing, RPMI (9).

[2] = test system: S. cerevisiae; test: Serial cell dilution (spotting) assay with or without fluconazole; type: cell-based, Saccharomyces cerevisiae; settings: GdA 5 μM or RAD 1 μM; 64 μg/ml fluconazole; rich medium, 30° C.; concordant by MIC testing
Procedure: FIG. 4. Hsp90 and calcineurin are required for FL resistance acquired through diverse mutations. […] Top two panels, deletion mutants. Bottom panel, control strains obtained by rapid (R1-3) and gradual (G1-3) selection. (A) Hsp90 was inhibited by GdA (5 μM) or RAD (1 μM), as indicated. (B) Calcineurin was inhibited by cyclosporin A (CsA, 20 μM).
(§3) Strains were grown to saturation in SD medium and cell concentrations were standardized based on optical density. Five-fold dilutions, starting from ˜4×10^6 cells/ml, were spotted on media, as indicated in the figure legends, using a spotter (Frogger, V&P Scientific, Inc). The plates were photographed after 2-3 days in the dark at the indicated temperature. For all spotting assays in which Hsp90 or calcineurin inhibitors were employed, the corresponding plates without these inhibitors was supplemented with the maximum final concentration of DMSO used (0.14%), as a solvent control.

[3] = test system: C. albicans; test: Selection of fluconazole-resistant mutants on plates; type: cell-based, Candida albicans; settings: 128 μg/ml fluconazole and 1 μM RAD; CAI4 and CaERG3/erg3; 7 days, 30° C.
Procedure: Strains of C. albicans were grown at 30° C. in SD prior to plating ˜10^4 cells on SD plates with 128 μg/ml FL or with both 128 μg/ml FL and 1 μM RAD. Plates were photographed after 7 days at 30° C. in the dark.

[4] = test system: C. albicans; test: Serial cell dilution (spotting) assay, growth with RAD; type: cell-based, Candida albicans; settings: 1 μM RAD; CAI4 and CaERG3/erg3; SD medium, 30° C., two days
Procedure: Serial dilutions of CAI4 and CaERG3/erg3 were spotted on SD medium (upper panel) and medium supplemented with 1 μM RAD (bottom panel). Plates were photographed after two days at 30° C. in the dark.
as §3

[5] = test system: A. terreus soil isolate ATCC 10020; test: Etest strip drug resistance; type: cell-based, Aspergillus terreus; settings: rich medium, 35° C., 36 hours
Procedure: FIG. 6. Hsp90 potentiates resistance to different drugs in C. albicans and A. terreus. […] Plates contained the Hsp90 inhibitor RAD (5 μM) or the calcineurin inhibitor CsA (20 μM). The MIC value is where the inhibition ellipse intersects the strip.
Resistance of C. albicans clinical isolate T118 and A. terreus soil isolate ATCC 10020 to FL, voriconazole (VO), and caspofungin (CS) was determined with Etest strips (AB Biodisk) on rich medium (half-strength YPD). For C. albicans, standardized inoculum was prepared as described above and ˜10^5 cells were plated on medium with the Hsp90 inhibitor RAD (5 μM), the calcineurin inhibitor CsA (20 μM), or the solvent control (0.14% DMSO), prior to application of a test strip. Plates were photographed after 36 hours at 30° C. in the dark. For A. terreus, inoculum was prepared according to a standard protocol (15) and ˜10^5 conidia were plated prior to application of a test strip. Plates were photographed after 36 hours at 35° C. in the dark.

[6] = test system: C. albicans; test: Fluconazole MIC test (broth microdilution); type: cell-based, Candida albicans; settings: CAI4 and CaERG3/erg3
Procedure: as §1
as §2, with “MICs were determined as the concentration of FL that inhibits fungal growth by 50% relative to the FL-free growth control.” left out

[7] = test system: C. albicans; settings: synthetic defined media; previous studies; cited from earlier work
[8] = GdA 5 μM or RAD 5 μM, SD medium, 30° C.

**Q.** For `C[C@@H]1C[C@H]2O[C@@H]2/C=C\C=C\C(=O)Cc2c(Cl)c(O)cc(O)c2C(=O)O1` [RAD, radicicol], which “effect of inhibitor alone on growth” value ([1]; GdA 5 μM or RAD 5 μM, 0 μg/ml fluconazole, SD medium, 30° C.) is on record?
**A.** did not impair growth on their own

**Q.** What about the “effect on fluconazole resistance of G1-3 strains (gradual selection)” value [1, 8] of the same compound?
**A.** neither GdA nor RAD altered resistance

**Q.** What about the “effect on fluconazole resistance of R1-3 strains (rapid selection)” value [1, 8] of the same compound?
**A.** abolished fluconazole resistance

**Q.** What about the “effect on fluconazole sensitivity of progenitor strains” value [1, 8] of the same compound?
**A.** had no effect

**Q.** What about the “effect on fluconazole resistance of eleven deletion mutants” value [2] of the same compound?
**A.** reduced the fluconazole resistance in all of them

**Q.** And the “colonies recovered on selection plates with fluconazole plus RAD” value [3]?
**A.** no colonies were recovered

**Q.** What about the “effect on growth in the absence of fluconazole” value [4] of the same compound?
**A.** does not impair growth; also recorded: had no effect on growth

**Q.** For `C[C@@H](c1ncncc1F)[C@](O)(Cn1cncn1)c1ccc(F)cc1F` [voriconazole], which “voriconazole resistance of FLR strains” value ([1]; all FLR strains obtained by rapid fluconazole selection) is on record?
**A.** resistant

**Q.** What about the “sensitivity of A. terreus to voriconazole relative to fluconazole” value [5] of the same compound?
**A.** much more sensitive to this azole than to fluconazole

**Q.** With `OC(Cn1cncn1)(Cn1cncn1)c1ccc(F)cc1F` [fluconazole] as the compound, how does the “fluconazole concentration at which growth is completely arrested” value ([1]; all strains (Lo90, Re90, Hi90), SD medium, 23° C.) read?
**A.** 16 µg/mL

**Q.** What about the “fluconazole concentration at which growth is completely arrested” value [6] of the same compound?
**A.** 16 µg/mL

**Q.** What about the “fluconazole sensitivity of clinical isolate T118” value [7] of the same compound?
**A.** sensitive
